Assay results: patent US4487771A, “C-3 Substituted 1,4-benzodiazepines and pharmaceutical utilization thereof” (Medosan Industrie Biochimiche Riunite, S.p.A., priority 1983, dated 1984)

Legend:
[1] = Miorelaxation; assay type: in vivo; conditions: oral, reduces "falling time" 50 percent of control group in 50 percent of treated animals, read-out: Miorelaxation DE50
Protocol: (§1) The pharmacologic activity of the compounds of the invention has been assessed by the following classical tests which are known to indicate useful therapeutic activities:
Miorelaxation (N. W. Dunham and T. S. Miya: J. Am. Pharm. Ass., 46, No. 3, 208-209, 1957.)
(§2) Main neuropharmacological effects of substituted benzodiazepine in oral
^d at 120 minutes after drug treatment.
^d' at 60 minutes after drug treatment.
^(xx) Reduces "falling time" 50 percent of control group in 50 percen

[2] = Anti-ECS; assay type: in vivo; conditions: oral, 60 minutes before ECS
Protocol: as §1
ECS (E. A. Swinyard, W. C. Brown and L. S. Goodman: J. Pharmacol. Exp. Therapeutics, 106, 319-330, 1952.)
as §2
^b 60 minutes before ECS.

[3] = Spontaneous Motor Activity; assay type: in vivo; conditions: 0.5 h; oral; 30 minutes period starting 30 minutes after drug treatment; reduces movements counts 50 percent of control activity in group of 4 animals; read-out: Spontaneous Motor Activity DE50
Protocol: as §1
Spontaneous Motor Activity (W. J. Kinnard and C. J. Carr: J. Pharmacol. Exp. Therapeutics, 121, 354-361, 1957.)
as §2
^e measured in 30 minutes period starting 30 minutes after drug
^(xxx) Reduces movements counts 50 percent of control activity in
group of 4 animals: 5 groups/dose.

[4] = Toxicity test, LD50 mice p.os; conditions: mouse, in vivo, po
Source text: |Compound LD50 mice p. os in mg/kg

[5] = Analgesic; assay type: in vivo; conditions: oral, prolongs reaction time 50 percent of control group in 50 percent of treated animals, read-out: Analgesic DE50
Protocol: as §1
Analgesic (N. B. Eddy and D. Leimbach: J. Pharmacol. Exp. Therapeutics, 107, 385-393, 1953.)
as §2
^c at 240 minutes after drug treatment.
^c' at 60 minutes after drug treatment.
^(x) Prolongs reaction time 50 percent of control group in 50 percent

[6] = Anti-pentylenetetrazol; assay type: in vivo; conditions: oral, 30 minutes before pentylenetetrazol treatment 130 mg/kg s.c.
Protocol: as §1
Anti-pentylenetetrazol (L. O. Randall, W. Schallek, G. A. Heise, E. F. Keith and R. Bagdon: J. Pharmacol. Exp. Therapeutics, 129, 163-171, 1960).
as §2
^a 30 minutes before pentylenetetrazol treatment 130 mg/kg s.c.

[7] = 2 h, at 120 minutes after drug treatment
[8] = convulsions, read-out: Anti-ECS, Convulsions DE50
[9] = death, read-out: Anti-ECS, Death DE50
[10] = 4 h, at 240 minutes after drug treatment
[11] = convulsions, read-out: Anti-pentylenetetrazol, Convulsions DE50
[12] = death, read-out: Anti-pentylenetetrazol, Death DE50

## O=C1Nc2ccc(Cl)cc2C(c2ccccc2)=NC1O (centres unmarked) [Oxazepam, reference compound]
[1]; [7]
  ED50: 25 mg/kg
[2]; [8]
  ED50: 40 mg/kg
[2]; [9]
  ED50: 4 mg/kg
[3]
  ED50: 4.2 mg/kg
[4]
  LD50: > 1500 mg/kg
[5]; [10]
  ED50: 28 mg/kg
[6]; [11]
  ED50: 20 mg/kg
[6]; [12]
  ED50: 5.5 mg/kg

## CC(=O)NCCCC(=O)OC1N=C(c2ccccc2Cl)c2cc(Cl)ccc2N(C)C1=O (centres unmarked) [Example 6, 3-(4-acetamido)-butyryloxy-7-chloro-5-o-chlorophenyl-1,3-dihydro-1-methyl-2H-1,4-benzodiazepine-2-one]
[1]; 1 h, at 60 minutes after drug treatment (d')
  ED50: 2 mg/kg
[2]; [8]
  ED50: 5.5 mg/kg
[2]; [9]
  ED50: 0.032 mg/kg
[3]
  ED50: 1.9 mg/kg
[4]
  LD50: > 1000 mg/kg
[5]; 1 h, at 60 minutes after drug treatment (c')
  ED50: 19 mg/kg
[6]; [11]
  ED50: 0.2 mg/kg
[6]; [12]
  ED50: 0.16 mg/kg

## CC(C)(C)OC(=O)NCCCC(=O)OC1N=C(c2ccccc2)c2cc(Cl)ccc2NC1=O (centres unmarked) [Example 2, 7-chloro-1,3-dihydro-5-phenyl-3-(4-tertiary-butoxycarbonylamino)butyryloxy-2H-1,4-benzodiazepine-2-one]
[1]; [7]
  ED50: 16 mg/kg
[2]; [8]
  ED50: 60 mg/kg
[2]; [9]
  ED50: 1 mg/kg
[3]
  ED50: 2.6 mg/kg
[4]
  LD50: > 1500 mg/kg
[5]; [10]
  ED50: 42 mg/kg
[6]; [11]
  ED50: 14 mg/kg
[6]; [12]
  ED50: 7 mg/kg

## CC(=O)NCC(=O)OC1N=C(c2ccccc2)c2cc(Cl)ccc2NC1=O (centres unmarked) [Example 5, 3-acetamido-acetoxy-7-chloro-1,3-dihydro-5-phenyl-2H-1,4-benzodiazepine-2-one]
[1]; [7]
  ED50: 15 mg/kg
[2]; [8]
  ED50: 12 mg/kg
[2]; [9]
  ED50: 0.32 mg/kg
[3]
  ED50: 0.7 mg/kg
[4]
  LD50: 1400 mg/kg
[5]; [10]
  ED50: 34 mg/kg
[6]; [11]
  ED50: 6 mg/kg
[6]; [12]
  ED50: 1.5 mg/kg

## CC(=O)NCCCC(=O)OC1N=C(c2ccccc2)c2cc(Cl)ccc2N(C)C1=O (centres unmarked) [Example 4, 3-(4-acetamido)butyryloxy-7-chloro-1,3-dihydro-1-methyl-5-phenyl-2H-1,4-benzodiazepine-2-one]
[1]; [7]
  ED50: 19 mg/kg
[2]; [8]
  ED50: 4 mg/kg
[2]; [9]
  ED50: 0.7 mg/kg
[3]
  ED50: 1.9 mg/kg
[4]
  LD50: 1000 mg/kg
[5]; [10]
  ED50: 30 mg/kg
[6]; [11]
  ED50: 5 mg/kg
[6]; [12]
  ED50: 2.2 mg/kg

## CC(=O)NCCCC(=O)OC1N=C(c2ccccc2)c2cc(Cl)ccc2NC1=O (centres unmarked) [Example 1, 3-(4-acetamido)butyryl-oxy-7-chloro-1,3-dihydro-5-phenyl-2H-1,4-benzodiazepine-2-one]
[1]; [7]
  ED50: 6.5 mg/kg
[2]; [8]
  ED50: 38 mg/kg
[2]; [9]
  ED50: 0.22 mg/kg
[3]
  ED50: 9 mg/kg
[4]
  LD50: 1500 mg/kg
[5]; [10]
  ED50: 26 mg/kg
[6]; [11]
  ED50: 7 mg/kg
[6]; [12]
  ED50: 4 mg/kg

## CC(=O)NCCCC(=O)OC1N=C(c2ccccc2Cl)c2cc(Cl)ccc2NC1=O (centres unmarked) [Example 3, 3-(4-acetamido)butyryloxy-7-chloro-5-o-chlorophenyl-1,3-dihydro-2H-1,4-benzodiazepine-2-one]
[1]; [7]
  ED50: 4.2 mg/kg
[2]; [8]
  ED50: 4.6 mg/kg
[2]; [9]
  ED50: 0.02 mg/kg
[3]
  ED50: 0.18 mg/kg
[4]
  LD50: 1200 mg/kg
[5]; [10]
  ED50: 42 mg/kg
[6]; [11]
  ED50: 2.6 mg/kg
[6]; [12]
  ED50: 0.15 mg/kg
